For one data set, the system named is HL-60. Kind of data set: Cytotoxicity, annexin V/7-AAD viability by flow cytometry, HL-60. In kind it is cell-based, human. The note with it: HL-60, 48 hours, drug range tested 1.25-160 μM. As for the experimental part: (§1) In order to assess the structure-activity relationship of DHL and its derivatives, DHL and its derivatives were evaluated against eight human leukemia cell lines. Cell lines were cultured in Iscove's Modified Dulbecco's Medium (IMDM) supplemented with 10%˜20% fetal bovine serum (FBS) according to culture conditions indicated by ATCC and 1% penicillin/streptomycin (Pen/Strep) at 37° C. and 5% CO2. The cells were seeded into 96-well plates and kept at a concentration of 0.5 million cells per mL. The samples were treated with DHL, Leucodine, DHL-Morpholine, DHL-Proline, DHL-Piperidine, and PTL at varying concentrations in triplicates. Cell viability was determined after incubating for 48 hours. The cells were stained with annexin V-fluorescein isothiocyanate or phycoeritrine (FITC/PE) and 7-aminoactinomycin (7-AAD) to detect phosphatidylserine exposition and cell permeability, respectively. At least 50,000 events were recorded per condition on either an LSR-II or LSR-Fortessa flow cytometer (BD Biosciences). Data analysis was conducted using FlowJo 9.6 software for Mac OS X (TreeStar). Cells that were negative for annexin V and 7-AAD were scored as viable.

Another data set relates to Kasumi-1. Kind of data set: Cytotoxicity, annexin V/7-AAD viability by flow cytometry, Kasumi-1. The format is cell-based, human. Particulars: Kasumi-1, 48 hours, drug range tested 1.25-160 μM. Here is the method:
as §1

The subject of a further data set is KG-1. Kind of data set: Cytotoxicity, annexin V/7-AAD viability by flow cytometry, KG-1. In kind it is cell-based, human. Particulars: KG-1, 48 hours, drug range tested 1.25-160 μM. Here is the method: In order to assess the structure-activity relationship of DHL and its derivatives, DHL and its derivatives were evaluated against eight human leukemia cell lines. Cell lines were cultured in Iscove's Modified Dulbecco's Medium (IMDM) supplemented with 10%˜20% fetal bovine serum (FBS) according to culture conditions indicated by ATCC and 1% penicillin/streptomycin (Pen/Strep) at 37° C. and 5% CO2. […] Cell viability was determined after incubating for 48 hours.
Background: Flow cytometry measures light scatter and fluorescence of single cells or particles in a stream.

A further data set has as its system MOLM-13. Kind of data set: Cytotoxicity, annexin V/7-AAD viability by flow cytometry, MOLM-13. In kind it is cell-based, human. Particulars: MOLM-13, 48 hours, drug range tested 1.25-160 μM. Here is the method:
as §1

Another data set has as its system TUR. Description: Cytotoxicity, annexin V/7-AAD viability by flow cytometry, TUR. The format is cell-based, human. Particulars: 48 hours, drug range tested 1.25-160 μM. As for the experimental part:
as §1

A further data set has as its system U-937. Kind of data set: Cytotoxicity, annexin V/7-AAD viability by flow cytometry, U-937. Particulars: U-937, 48 hours, drug range tested 1.25-160 μM. The format is cell-based, human. As for the experimental part: as §1
For another data set, the system named is K-562. Kind of data set: Single dose tumor cell growth inhibition, Leukemia K-562. In kind it is cell-based. The note with it: K-562, single dose 10 μM. An excerpt: (§2) DHL is cytotoxic to various leukemia, colon cancer, CNS cancer and prostate cancer cell lines.
A further data set deals with RPMI-8226. Description: Single dose tumor cell growth inhibition, Leukemia RPMI-8226. In kind it is cell-based. The note with it: RPMI-8226, single dose 10 μM.
Description: as §2

The subject of a further data set is SNB-75. Description: Single dose tumor cell growth inhibition, CNS Cancer SNB-75. In kind it is cell-based, human. The note with it: SNB-75, single dose 10 μM.
Description: as §2

For another data set, the system named is U251. Kind of data set: Single dose tumor cell growth inhibition, CNS Cancer U251. The note with it: U251, single dose 10 μM. The format is cell-based, human.
Description: as §2

The next data set deals with PC-3. Description: Single dose tumor cell growth inhibition, Prostate Cancer PC-3. The format is cell-based, human. Particulars: PC-3, single dose 10 μM.
Description: as §2

The test system of a further data set is DU-145. Description: Single dose tumor cell growth inhibition, Prostate Cancer DU-145. The note with it: DU-145, single dose 10 μM. In kind it is cell-based, human.
Description: as §2

Another data set deals with HOP-62. Kind of data set: Single dose tumor cell growth inhibition, Non-Small Cell Lung Cancer HOP-62. In kind it is cell-based. Particulars: HOP-62, single dose 10 μM.
Description: as §2

For another data set, the system named is NCI-H460. Description: Single dose tumor cell growth inhibition, Non-Small Cell Lung Cancer NCI-H460. In kind it is cell-based. The note with it: NCI-H460, single dose 10 μM.
Description: as §2

Another data set relates to SK-OV-3. Kind of data set: Single dose tumor cell growth inhibition, Ovarian Cancer SK-OV-3. In kind it is cell-based. The note with it: SK-OV-3, single dose 10 μM.
Description: as §2

For the next data set, the system named is phospho-p65. Kind of data set: Western blot of phospho-p65 and total p65 in MOLM-13 cells. Particulars: 10 or 20 μM, 6 hours. In kind it is cell-based. Here is the method: (FIG. 8A) Graphical representation of the fold changes of HMOX-1 in MOLM-13 cells. Cells were seeded at 0.5 million cells per milliliter and subject to 20 μM of DHL, leucodine, DHL-proline, DHL-piperidine, DHL-morpholine, or parthenolide for 6 hours. RNA was then extracted and quantitative PCR was performed. Experiments were performed in triplicates. Lines represent mean for each specimen, with error bars representing the SD. Fold change was calculated by the delta-delta Ct method. […] (FIG. 8D) Immunoblot for MOLM-13 cells after 6 hours of treatment with either DHL or PTL with 10 or 20 μM. Blot was probed for phospho-p65 and p65 antibodies. Total p65 is shown as the loading control.
Background: Immunoblotting shows a protein as a band on a membrane.

A further data set concerns HMOX-1, HSPA1A, HSPH1. Kind of data set: Real-time PCR gene expression in KG-1 and MOLM-13 cells. Particulars: 20 μM, 6 hours. The format is cell-based. An excerpt: FIG. 1A, FIG. 1B, FIG. 1C, FIG. 1D and FIG. 1E present the changes in gene expression in KG1 or MOLM13 cells after exposure to dehydroleucodine, parthenolide, or derivatives thereof. Plotted is the fold change in expression relative to control after treatment with parthenolide-tyramine (PTL-Tyr), parthenolide (PTL), leucodine (Leuco), dehydroleucodine (DHL), dehydroleucodine-tyramine (DHL-Tyr), or dehydroleucodine-morpholine (DHL-Morp). […] FIG. 1B plots the expression of HSPA1A in KG1 cells. FIG. 1C presents the expression of HSPH1 in KG1 cells. […] FIG. 1E presents the expression of HSPH1 in MOLM13 cells. Error bars represent S.E.M.
MOLM-13 and KG-1 cells were seeded at 0.5 million cells per ml. Cells were treated for 6 hours with 20 μM of parthenolide (PTL), dehydroleucodine (DHL), leucodine (Leu), parthenolide-tyramine (PTL-Tyr), dehydroleucodine-tyramine (DHL-Tyr) and dehydroleucodine-Morpholine (DHL-Morp), and then collected. Total RNA was extracted using the Qiashredder and Qiagen Rneasy mini kits (Quiagen) according to the manufacturer's instructions. Real-time PCR was performed using the Taqman RNA to CT 1-Step kit (Applied Biosystems). […] Single-plex real-time PCR was performed in triplicates in a StepOne plus RealTime PCR system (Applied Biosystems) and analyzed with the StepOne Software. Fold change was calculated using the 2-DDCT method.

Another data set can be described thus: Log P octanol/water. Particulars: experimentally determined. The format is physicochemical.

“Also recorded” adds a separate entry of the source.

As for `C=C1C(=O)O[C@@H]2[C@H]3C(C)=CC(=O)C3=C(C)CC[C@@H]12` [DHL, dehydroleucodine], the LD50 in the data set on HL-60 was 14.13 µM; in the data set with Kasumi-1, 12.92 µM; with KG-1, 18.66 µM; with MOLM-13, 12.59 µM; with TUR, 12.18 µM; with U-937, 18.95 µM. Further, the Percent inhibition with K-562 was determined as 42.0%; with RPMI-8226, 31.7%; with SNB-75, 35.5%; in the data set on U251, 30.0%; with PC-3, 38.6%; in the data set with DU-145, 44.0%. The Percent inhibition in the data set on HOP-62, in the data set on NCI-H460 and with SK-OV-3 was 0.0% each time. Further, in the data set on phospho-p65, the “phospho-p65 level by Western blot” value is listed as “significant decrease”. For the same molecule, the “expression of HMOX-1, HSPA1A and HSPH1” value with HMOX-1, HSPA1A, HSPH1 is “activated the expression of all three target genes in both cell lines; also recorded: more potent than PTL”. For the same molecule, in “Log P octanol/water”, the “Log P octanol/water” value is reported as 2.33 (±0.16).

Source of the values: US11059800B2, “Dehydroleucodine derivatives and uses thereof” (Bioventures, LLC, priority 2013, dated 2021).
